{"source": "paper PMC2981568", "about": "(PLoS ONE, 2010)", "molecules": {"B1": {"name": "Mycobacterium tuberculosis phosphoribosylpyrophosphate synthetase (enzyme)", "chain": "MSHDWTDNRKNLMLFAGRAHPELAEQVAKELDVHVTSQDAREFANGEIFVRFHESVRGCDAFVLQSCPAPVNRWLMEQLIMIDALKRGSAKRITAVMPFYPYARQDKKHRGREPISARLIADLLKTAGADRIVTVDLHTDQIQGFFDGPVDHMRGQNLLTGYIRDNYPDGNMVVVSPDSGRVRIAEKWADALGGVPLAFIHKTRDPRVPNQVVSNRVVGDVAGRTCVLIDDMIDTGGTIAGAVALLHNDGAGDVIIAATHGVLSDPAAQRLASCGAREVIVTNTLPIGEDKRFPQLTVLSIAPLLASTIRAVFENGSVTGLFDGDA", "notes": "also called MtbPRPPase; M. tuberculosis PRPPase; not shown: His6, N-terminal, kept"}}, "key": {"[1]": {"target": "T1, MtbPRPPase (phosphoribosylpyrophosphate synthetase) (Mycobacterium tuberculosis, UniProt P9WKE3)", "T1 construct": "gene prs", "assay": "[…]; inhibition curve and steady-state kinetics ([…] Pi; IC50 […] at […] Pi)", "format": "biochemical"}, "[2]": {"target": "T1, MtbPRPPase (phosphoribosylpyrophosphate synthetase)", "assay": "biochemical"}, "[3]": {"target": "the molecule itself", "assay": "SEC"}}, "data": [{"molecule": "Nc1ncnc2c1ncn2[C@@H]1O[C@H](COP(=O)(O)OP(=O)(O)O)[C@@H](O)[C@H]1O", "note": "[ADP]", "values": [{"measurement": "IC50", "setting": "[1]", "value": 400, "unit": "µM"}]}, {"molecule": "Nc1nc2c(ncn2[C@@H]2O[C@H](COP(=O)(O)OP(=O)(O)O)[C@@H](O)[C@H]2O)c(=O)[nH]1", "note": "[GDP]", "values": [{"measurement": "IC50", "setting": "[2]", "value": "> 5000", "unit": "µM"}]}, {"molecule": "B1", "values": [{"measurement": "stoichiometry N", "setting": "[3]", "value": 6}]}]}
